Assay results published in patent publication US5185363A, “Urea based lipoxygenase inhibiting compounds” (Abbott Laboratories, priority 1991, dated 1993).

Experiments:
[1] = target: T1, 5-Lipoxygenase from RBL-1 20,000 xg Supernatant (Rattus norvegicus, UniProt P12527); assay: In vitro inhibition of 5-lipoxygenase from RBL-1 20,000 xg supernatant; assay type: biochemical; details: radiolabeled arachidonic acid
T1 construct: supermatant from 1.5 million homogenized RBL-1 cells; endogenous in cells; host or cells: RBL-1 cells, 20,000 x g supernatant of homogenate
T1 sequence (P12527 1-673): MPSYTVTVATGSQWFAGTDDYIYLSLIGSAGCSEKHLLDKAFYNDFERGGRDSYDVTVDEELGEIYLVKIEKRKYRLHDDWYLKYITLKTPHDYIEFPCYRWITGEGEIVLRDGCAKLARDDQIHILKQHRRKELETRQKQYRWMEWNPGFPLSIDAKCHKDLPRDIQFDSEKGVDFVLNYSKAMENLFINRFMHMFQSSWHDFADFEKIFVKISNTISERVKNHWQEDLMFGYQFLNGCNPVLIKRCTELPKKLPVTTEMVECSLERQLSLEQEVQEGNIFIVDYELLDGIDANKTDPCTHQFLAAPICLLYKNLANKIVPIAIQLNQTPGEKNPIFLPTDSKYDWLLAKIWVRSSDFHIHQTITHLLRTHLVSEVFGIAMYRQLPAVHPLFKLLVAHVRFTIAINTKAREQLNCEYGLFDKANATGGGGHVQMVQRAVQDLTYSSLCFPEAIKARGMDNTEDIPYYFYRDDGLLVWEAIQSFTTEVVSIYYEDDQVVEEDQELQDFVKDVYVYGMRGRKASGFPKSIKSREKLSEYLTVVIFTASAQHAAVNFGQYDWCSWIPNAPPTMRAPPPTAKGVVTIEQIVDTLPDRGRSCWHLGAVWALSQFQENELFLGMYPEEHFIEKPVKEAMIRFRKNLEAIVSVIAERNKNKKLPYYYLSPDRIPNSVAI
Protocol: Assays to determine 5-lipoxygenase inhibitory activity were performed in […] incubations containing the 20,000xg supermatant from 1.5 million homogenized RBL-1 cells and various concentrations of the test compound. Reactions were initiated by addition of radiolabeled arachidonic acid and terminated by acidification and ether extraction. Reaction products were separated from nonconverted substrate by thin layer chromatography and measured by liquid scintillation spectroscopy. All incubations are performed in triplicate. Inhibition of 5-lipoxygenase activity was calculated as the ratio of the amount of product formed in the presence and absence of inhibitor. […] (Dyer, R.D.; Haviv, F.; Hanel, A. M.; Bornemier, D. A.; Carter, G. W. Fed. Proc., Fed. Am. Soc. Exp. Biol. 1984, 43, 1462A).

leukotriene biosynthesis = assay: In vivo inhibition of leukotriene biosynthesis, rat peritoneal anaphylaxis model; details: 1 h, 200 μmol/kg oral dose, gavage one hour prior to antigen challenge, read-out: Percent Inhibition
Protocol: Inhibition of the biosynthesis of leukotrienes in vivo after oral administration of compound was determined using a rat peritoneal anaphylaxis model in a similar manner as that described by Young and coworkers (Young, P. R.; Dyer, R. D.; Carter, G. W. Fed. Proc., Fed. Am. Soc. Exp. Biol. 1985, 44, 1185). In this model rats were injected intraperitoneally (ip) with rabbit antibody to bovine serum albumin (BSA) and three hours later injected ip with BSA to induce an antgen-antibody response. Rats were sacrificed 15 minutes after this challenge and the peritoneal fluids were collected and analyzed for leukotriene levels. Test compounds were administered by gavage one hour prior to the antigen challenge. Percent inhibition values were determined by comparing the treatment group to the mean of the control group.

5-lipoxygenase = details: cited from earlier work

Row | IC50 [1] [µM] | Structure (SMILES) | inhibition in vivo at 200 µmol/kg (leukotriene biosynthesis) [%] | 5-lipoxygenase inhibition (5-lipoxygenase)
1 | 0.43 | CC(c1ccc(OCc2ccccc2)cc1)N(O)C(N)=O (centres unmarked) [Example 1, N-hydroxy-N-(1(4-phenylmethoxyphenyl)ethyl)urea] | 58 | 
2 | 0.5 | CC(c1ccc(OCc2ccccc2)cc1)N(O)C(=O)NO (centres unmarked) [Example 4] | 63 | 
3 | 0.61 | NC(=O)N(O)Cc1ccc(OCc2ccccc2)cc1 [Example 5, N-hydroxy-N-(4-phenylmethoxyphenylmethyl) urea] | 74 | 
4 | 1.4 | COc1cc(C(C)N(O)C(N)=O)cc(OC)c1OCc1ccccc1 (centres unmarked) [Example 7, N-hydroxy-N-(1-(4-phenylmethoxy-3,5-dimethoxyphenyl)ethyl) urea] | 88 | 
5 |  | CC(c1ccc2ccccc2c1)N(O)C(N)=O (centres unmarked) [Example 9, N-hydroxy-N-(1-(2-naphthyl)ethyl) urea] | 69 | 
6 | 0.53 | Cc1ccc(C(C)N(O)C(N)=O)s1 (centres unmarked) [Example 12, N-Hydroxy-N-1-(5-methylthien-2-yl)ethyl urea] | 94 | 
7 | 1.5 | Cc1cc(C(C)N(O)C(N)=O)c(C)s1 (centres unmarked) [Example 42, N-Hydroxy-N-1-(2,5-dimethylthien-3-yl)ethyl urea] | 64 | 
8 | 3.5 | CC(c1ccsc1)N(O)C(N)=O (centres unmarked) [Example 43, N-Hydroxy-N-1-(thien-3-yl)ethyl urea] | 66 | 
9 | 4.9 | NC(=O)N(O)Cc1ccsc1 [Example 44, N-Hydroxy-N-(thien-3-yl)methyl urea] | 87 | 
10 | 6.8 | NC(=O)N(O)Cc1cccs1 [Example 45, N-hydroxy-N-(thien-2-yl)methyl urea] | 97 | 
11 | 3.7 | CC(c1cccs1)N(O)C(N)=O (centres unmarked) [Example 47, N-hydroxy-N-(1-thien-2-yl)ethyl urea] | 94 | 
12 |  | Cc1ccsc1CN(O)C(N)=O [Example 49, N-hydroxy-N-(3-methylthien-2-yl)methyl urea] | 94 | 
13 | 6.7 | CNC(=O)N(O)Cc1cccs1 [Example 50, N-hydroxy-N-(thien-2-yl)methyl-N'-methyl urea] | 90 | 
14 | 0.2 | Cc1ccc(CN(O)C(N)=O)s1 [Example 51, N-hydroxy-N-(5-methylthien-2-yl)methyl urea] | 94 | 
15 | 2.1 | NC(=O)N(O)Cc1ccc(-c2ccccn2)s1 [Example 55, N-hydroxy-N-(1-(5-(pyrid-2-yl)thien-2-yl)methyl) urea] | 71 | 
16 | 0.4 | CC(c1ccc(-c2ccccc2)s1)N(O)C(N)=O (centres unmarked) [Example 56, N-hydroxy-N-(1-(5-phenylthien-2-yl)ethyl)urea] | 89 | 
17 | 1.9 | NC(=O)N(O)CC=Cc1ccsc1 [Example 68, N-hydroxy-N-(3-(1-thien-3-yl)propenyl) urea] | 93 | 

Row | IC50 [1] [µM] | Structure (SMILES) | inhibition in vivo at 200 µmol/kg (leukotriene biosynthesis) [%] | 5-lipoxygenase inhibition (5-lipoxygenase)
18 | 0.2 | CC(c1ccc(Br)cc1)N(O)C(N)=O (centres unmarked) [Example 97, N-Hydroxy-N-1-(4-bromophenyl)ethylurea] | 94 | 
19 | 0.3 | CC(c1ccc(Br)cc1)N(O)C(=O)NCCO (centres unmarked) [Example 99, N-Hydroxy-N-1-(4-bromophenyl)ethyl-N'-(2-hydroxyethyl)-urea] | 84 | 
20 | 0.8 | NC(=O)N(O)Cc1ccc(Br)cc1 [Example 100, N-Hydroxy-N-4-bromobenzylurea] | 95 | 
21 | 0.3 | CNC(=O)N(O)Cc1ccc(Br)cc1 [Example 101, N-Hydroxy-N-4-bromobenzyl-N'-methyl urea] | 93 | 
22 |  | CCC(c1ccc(Br)cc1)N(O)C(N)=O (centres unmarked) [Example 102, N-Hydroxy-N-(1-(4-bromophenyl)propyl) urea] | 85 | 
23 |  | CCC(c1ccc(Br)cc1)N(O)C(=O)NC (centres unmarked) [Example 103, N-Hydroxy-N-(1-(4-bromophenyl)propyl)-N'-methylurea] | 88 | 
24 | 0.6 | CC(c1ccc(Cl)cc1)N(O)C(N)=O (centres unmarked) [Example 107, N-Hydroxy-N-(1-(4-chlorophenyl)ethyl) urea] | 99 | 
25 | 1.8 | CC(c1ccc(F)cc1)N(O)C(N)=O (centres unmarked) [Example 109, N-Hydroxy-N-(1-(4-fluorophenyl)ethyl) urea] | 98 | 
26 |  | CC(c1ccc(C(F)(F)F)cc1)N(O)C(N)=O (centres unmarked) [Example 111, N-Hydroxy-N-(1-(4-trifluoromethylphenyl)ethyl) urea] | 97 | 
27 | 0.3 | Cc1ccc(C(C)N(O)C(N)=O)cc1 (centres unmarked) [Example 113, N-Hydroxy-N-(1-(4-methylphenyl)ethyl) urea] | 94 | 
28 |  | CC(c1ccc(-c2ccccc2)cc1)N(O)C(N)=O (centres unmarked) [Example 120, N-Hydroxy-N-(1-(4-biphenyl)ethyl) urea] | 77 | 
29 | 0.2 | CC(C)(C)Sc1ccc(/C=C/CN(O)C(N)=O)s1 [Example 154, N-hydroxy-N-3-[5-(tertbutylthio)thien-2-yl]propenyl urea] |  | 
30 | 0.7 | NC(=O)N(O)Cc1ccc(Oc2ccccc2)s1 [Example 155, N-hydroxy-N-[5-(phenoxy)thien-2-yl]methyl urea] |  | 
31 | 1 | NC(=O)N(O)Cc1sccc1Oc1ccccc1 [Example 156, N-hydroxy-N-[3-(phenoxy)thien-2-yl]methyl urea] |  | 
32 | 0.5 | NC(=O)N(O)Cc1cc(Oc2ccccc2)cs1 [Example 157, N-hydroxy-N-[4-(phenoxy)thien-2-yl]methyl urea] |  | 
33 | 0.4 | NC(=O)N(O)Cc1cc(Oc2ccc(Cl)cc2)cs1 [Example 158, N-hydroxy-N-[4-(4-chlorophenoxy)thien-2-yl]methyl urea] |  | 
34 |  | O=C(O)c1cc(/N=N/c2ccc(S(=O)(=O)Nc3ccccn3)cc2)ccc1O [sulfasalazine] |  | weak 5-lipoxygenase inhibitor
